Columns and labels:
mice = experiment: Bronchoconstriction (Penh, plethysmography) in mice passively sensitized with TNP-specific Ig LC and challenged intranasally with PSA; assay type: in vivo
Protocol: Lightly anaesthetized with halothane, mice were passively sensitized by injection with trinitrophenyl (TNP)-specific Ig LC (2 μg in 50 μl of sterile saline) in the retroorbital plexus. Control mice received only 50 μl of sterile saline. Thirty minutes after injection, while being lightly anaesthetized with halothane, all mice received intranasally 50 μl PSA-solution (picrylsulphonic acid dissolved in phosphate-buffered saline).
A part of each of these two groups of mice simultaneously received 200 μg LCBP (the peptide prepared in Example 1) intranasally.
Bronchoconstriction was measured as described by Kraneveld A. D. et al. (ref. 3) and Zuany-Amorim et al. (ref. 6). In short, five minutes before intranasal application of PSA, mice were placed in a plethysmographic chamber (Buxco Electronics Inc., Shanon, Conn.) in order to analyze respiration and to obtain basal line readings. After the intranasal administration, the animals were directly returned to the chamber. The respiratory resistance was measured for a period of 45 minutes. The respiratory resistance is expressed as a dimensionless value calculated by using the formula for the Penh (ref. 4).

RBL-2H3 cells = experiment: Binding of FITC-labeled Ig LC to RBL-2H3 mast cell model (FACScan flow cytometer); assay type: cell-based, rat
Protocol: Basophilic leukemia cells RBL-2H3 (a gift of C. Fewtrell, Ithaca, N.Y., U.S.A.) of the rat, an established model for mast cells, were incubated with 200 ng/10^5 cells Ig LC labeled with fluorescein isothiocyanate. They were incubated for 30 minutes at 4° C. in the presence or absence of 250 μg/ml of the peptide LCBP prepared in preparation 1 (peptide binding to the light chain). Subsequently, they were washed using a phosphate-buffered saline supplemented with 1% v/v fetal calf serum and 0.01% w/v sodium azide. Binding of FITC-labeled Ig LC to RBL-2H3 cells was analyzed using a FACScan flow cytometer.
Curve 4 represents the autofluorescence of unlabeled RBL-2H3 cells.

## Ac-AHWSGHCCL-NH2 (cysteine pairing not given here) [LCBP]
mice; LCBP/PBS/PSA group (200 μg LCBP intranasally, saline instead of Ig LC), time 0 min, basal line reading before the challenge
  Penh (maximum, respiratory resistance): 0.44 ± 0.05
mice; LCBP/PBS/PSA group (200 μg LCBP intranasally, saline instead of Ig LC), time 2.5 min
  Penh (maximum, respiratory resistance): 0.60 ± 0.12
mice; LCBP/PBS/PSA group (200 μg LCBP intranasally, saline instead of Ig LC), time 5 min
  Penh (maximum, respiratory resistance): 0.65 ± 0.23
mice; LCBP/PBS/PSA group (200 μg LCBP intranasally, saline instead of Ig LC), time 7.5 min
  Penh (maximum, respiratory resistance): 0.74 ± 0.12
mice; LCBP/PBS/PSA group (200 μg LCBP intranasally, saline instead of Ig LC), time 10 min
  Penh (maximum, respiratory resistance): 0.53 ± 0.03
mice; LCBP/PBS/PSA group (200 μg LCBP intranasally, saline instead of Ig LC), time 15 min
  Penh (maximum, respiratory resistance): 0.49 ± 0.06
mice; LCBP/PBS/PSA group (200 μg LCBP intranasally, saline instead of Ig LC), time 20 min
  Penh (maximum, respiratory resistance): 0.49 ± 0.03
mice; LcBP/Ig LC/PSA group (200 μg LCBP intranasally, Ig LC-sensitized mice), time 0 min, basal line reading before the challenge
  Penh (maximum, respiratory resistance): 0.43 ± 0.05
mice; LcBP/Ig LC/PSA group (200 μg LCBP intranasally, Ig LC-sensitized mice), time 2.5 min
  Penh (maximum, respiratory resistance): 0.87 ± 0.20
mice; LcBP/Ig LC/PSA group (200 μg LCBP intranasally, Ig LC-sensitized mice), time 5 min
  Penh (maximum, respiratory resistance): 1.12 ± 0.20
mice; LcBP/Ig LC/PSA group (200 μg LCBP intranasally, Ig LC-sensitized mice), time 7.5 min
  Penh (maximum, respiratory resistance): 0.87 ± 0.10
mice; LcBP/Ig LC/PSA group (200 μg LCBP intranasally, Ig LC-sensitized mice), time 10 min
  Penh (maximum, respiratory resistance): 0.87 ± 0.20
mice; LcBP/Ig LC/PSA group (200 μg LCBP intranasally, Ig LC-sensitized mice), time 15 min
  Penh (maximum, respiratory resistance): 0.85 ± 0.01
mice; LcBP/Ig LC/PSA group (200 μg LCBP intranasally, Ig LC-sensitized mice), time 20 min
  Penh (maximum, respiratory resistance): 0.52 ± 0.05
mice; intranasal LCBP during passive sensitization (i.v.) with Ig LC
  Inhibition of bronchoconstriction (elevation of Penh) induced by antigen (PSA): completely inhibit
RBL-2H3 cells; LCBP 0.25 mg/ml, FIG. 1 curve 2
  Inhibition of Ig LC binding to mast cells: can be inhibited
RBL-2H3 cells; LCBP 0.50 mg/ml, FIG. 1 curve 3
  Inhibition of Ig LC binding to mast cells: can be inhibited
